Data as given in ChEMBL document CHEMBL4043238, “Discovery of N-substituted 7-azaindoles as Pan-PIM kinase inhibitors - Lead series identification - Part II” (Bioorg Med Chem Lett, 2017).
Converted amounts (≈) assume the structure as drawn.

Tests used:
KG-1 = assay: Antiproliferative activity against human KG1 cells; assay type: functional, cell-based
[1] = target: T1, Serine/threonine-protein kinase pim-1 (Homo sapiens, UniProt P11309); assay: Inhibition of PIM1 (unknown origin) assessed as reduction in BAD phosphorylation at Ser112 residues by TR-FRET assay
[2] = target: Serine/threonine-protein kinase pim-2 (Homo sapiens, UniProt Q9P1W9); assay: Inhibition of PIM2 (unknown origin) assessed as reduction in BAD phosphorylation at Ser112 residues by TR-FRET assay
[3] = target: T1, Serine/threonine-protein kinase pim-1; assay: Inhibition of PIM1 in human KG1 cells assessed as reduction in BAD phosphorylation; assay type: cell-based
[4] = Permeability from apical to basolateral side in human Caco2/TC7 cells at 5 uM; assay type: ADME, cell-based; conditions: Caco-2, read-out: permeability
[5] = target: Voltage-gated inwardly rectifying potassium channel KCNH2 (Homo sapiens, UniProt Q12809); assay: Inhibition of human ERG by patch clamp assay
[6] = Thermodynamic solubility of the compound at pH 7.4; assay type: physicochemical; conditions: buffer, read-out: Therm_solubility
Liver [7] = assay: Stability in human liver microsomes; assay type: ADME, microsome
Liver [8] = assay: Stability in rat liver microsomes; assay type: ADME, microsome
Liver [9] = assay: Stability in mouse liver microsomes; assay type: ADME, microsome
Cytochrome P450 3A4 [10] = target: T2, Cytochrome P450 3A4 (Homo sapiens, UniProt P08684); assay: Inhibition of CYP3A4 (unknown origin) using midazolam as substrate; assay type: ADME
Cytochrome P450 3A4 [11] = target: T2, Cytochrome P450 3A4; assay: Inhibition of CYP3A4 (unknown origin) using testosterone as substrate; assay type: ADME
[12] = AUC (0 to infinity) in rat at 3 mg/kg, iv administered as single dose; assay type: ADME, organism-based; set-up: dose 3 mg/kg, route intravenous, time infinity; conditions: in vivo
[13] = AUC (0 to infinity) in rat at 10 mg/kg, po administered as single dose; assay type: ADME, organism-based; set-up: dose 10 mg/kg, time infinity, route oral; conditions: in vivo
[14] = Cmax in rat at 10 mg/kg, po administered as single dose; assay type: ADME, organism-based; set-up: dose 10 mg/kg, route oral; conditions: in vivo
[15] = Half life in rat at 3 mg/kg, iv administered as single dose; assay type: ADME, organism-based; conditions: in vivo
[16] = Clearance in rat at 3 mg/kg, iv administered as single dose; assay type: ADME, organism-based; conditions: in vivo
[17] = Volume of distribution at steady state in rat at 3 mg/kg, iv administered as single dose; assay type: ADME, organism-based; conditions: in vivo, read-out: Vdss
Mus musculus [18] = assay: In vivo inhibition of PIM1 in SCID mouse xenografted with human KG1 cells assessed as reduction in BAD phosphorylation at 25 mg/kg, po administered as single dose measured at 8 hrs relative to control; assay type: functional; conditions: KG-1, po
Mus musculus [19] = assay: In vivo inhibition of PIM1 in SCID mouse xenografted with human KG1 cells assessed as reduction in BAD phosphorylation at 25 mg/kg, po administered as single dose measured at 24 hrs relative to control; assay type: functional; conditions: KG-1, po
[20] = Plasma concentration in SCID mouse xenografted with human KG1 cells at 25 mg/kg, po administered as single dose measured at 8 hrs; assay type: ADME, organism-based
[21] = Plasma concentration in SCID mouse xenografted with human KG1 cells at 25 mg/kg, po administered as single dose measured at 24 hrs; assay type: ADME, organism-based
[22] = Drug uptake in tumor of SCID mouse xenografted with human KG1 cells at 25 mg/kg, po administered as single dose measured at 8 hrs; assay type: ADME, organism-based, Neoplasm; conditions: read-out: Drug uptake
[23] = Drug uptake in tumor of SCID mouse xenografted with human KG1 cells at 25 mg/kg, po administered as single dose measured at 24 hrs; assay type: ADME, organism-based, Neoplasm; conditions: read-out: Drug uptake
[24] = Protein binding in human plasma; assay type: ADME, cell-free; conditions: read-out: PPB
[25] = Protein binding in rat plasma; assay type: ADME, cell-free; conditions: read-out: PPB
[26] = Protein binding in mouse plasma; assay type: ADME, cell-free; conditions: read-out: PPB
[27] = target: Serine/threonine-protein kinase pim-3 (Homo sapiens, UniProt Q86V86); assay: Inhibition of PIM3 (unknown origin) assessed as reduction in BAD phosphorylation at Ser112 residues by TR-FRET assay
[28] = Clearance in human liver microsomes assessed as compound extraction at 5 uM; assay type: ADME, microsome; conditions: read-out: CLH
[29] = AUC (0 to infinity) in mouse at 10 mg/kg, po administered as single dose; assay type: ADME, organism-based; set-up: dose 10 mg/kg, route oral, time infinity; conditions: in vivo
[30] = Half life in mouse at 3 mg/kg, iv administered as single dose; assay type: ADME, organism-based; conditions: in vivo
[31] = Half life in mouse at 10 mg/kg, po administered as single dose; assay type: ADME, organism-based; conditions: in vivo
[32] = Oral bioavailability in mouse at 10 mg/kg administered as single dose; assay type: ADME, organism-based; conditions: in vivo
[33] = Clearance in mouse at 3 mg/kg, iv administered as single dose; assay type: ADME, organism-based; conditions: in vivo
[34] = Volume of distribution at steady state in mouse at 3 mg/kg, iv administered as single dose; assay type: ADME, organism-based; conditions: in vivo, read-out: Vdss
[35] = Cmax in mouse at 3 mg/kg, iv or 10 mg/kg, po administered as single dose; assay type: ADME, organism-based; conditions: in vivo
Mus musculus [36] = assay: Clearance in mouse at 3 mg/kg, iv administered as single dose relative to hepatic blood flow; assay type: ADME, organism-based; conditions: in vivo

Question: With `NC(=O)c1cc(Cl)c2c(Cl)c(C3CC3)n([C@H]3CCCNC3)c2n1` as the compound, how does the IC50 (KG-1) read?
Answer: 0.062 µM

Question: What about the IC50 [1] of the same compound?
Answer: 0.001 µM

Question: What about the IC50 [2] of the same compound?
Answer: 0.006 µM

Question: What about the IC50 [3] of the same compound?
Answer: 0.043 µM

Question: And the Papp A→B at 5 µM [4]?
Answer: 38 nm/s

Question: And the IC50 [5]?
Answer: 2.9 µM

Question: And the solubility thermodynamic [6]?
Answer: 225 µM (≈ 79.5 µg/mL)

Question: And the Stability (Liver [7])?
Answer: 1%

Question: And the Stability (Liver [8])?
Answer: 6%

Question: What about the Stability (Liver [9]) of the same compound?
Answer: 10%

Question: And the IC50 (Cytochrome P450 3A4 [10])?
Answer: > 30 µM

Question: What about the IC50 (Cytochrome P450 3A4 [11]) of the same compound?
Answer: 21 µM

Question: And the AUC(0-inf) [12]?
Answer: 2.62 µg·h/mL

Question: What about the AUC(0-inf) [13] of the same compound?
Answer: 7.45 µg·h/mL

Question: And the Cmax [14]?
Answer: 0.39 µg/mL

Question: What about the half-life [15] of the same compound?
Answer: 13.6 h

Question: And the clearance [16]?
Answer: 1.1 L/h/kg

Question: What about the Vd [17] of the same compound?
Answer: 20.9 L/kg

Question: And the inhibition in vivo at 25 mg/kg (Mus musculus [18])?
Answer: 60 to 65%

Question: What about the inhibition in vivo at 25 mg/kg (Mus musculus [19]) of the same compound?
Answer: 61%

Question: And the concentration at 8 h [20]?
Answer: 18.9 µM

Question: What about the concentration at 24 h [21] of the same compound?
Answer: 8.21 µM

Question: And the concentration at 8 h [22]?
Answer: 101 µM

Question: And the concentration at 24 h [23]?
Answer: 99 µM

Question: What about the fraction unbound [24] of the same compound?
Answer: 0.01

Question: What about the fraction unbound [25] of the same compound?
Answer: 0.01

Question: What about the fraction unbound [26] of the same compound?
Answer: 0.01

Question: With `NCC1CCC(n2c(I)c(Cl)c3c(Cl)cc(C(N)=O)nc32)CC1` (stereo unspecified) as the compound, how does the IC50 [1] read?
Answer: 0.003 µM

Question: What about the IC50 [2] of the same compound?
Answer: 0.009 µM

Question: With `NC(=O)c1cc(Cl)c2c(Cl)c(I)n(CC3CCNCC3)c2n1` as the compound, how does the IC50 [1] read?
Answer: 0.004 µM

Question: What about the IC50 [2] of the same compound?
Answer: 0.099 µM

Question: What about the IC50 [27] of the same compound?
Answer: 0.012 µM

Question: For `CSc1c(Cl)c2c(Cl)cc(C(N)=O)nc2n1C1CCCNC1` (stereo unspecified), which IC50 [1] is on record?
Answer: 0.003 µM

Question: And the IC50 [2]?
Answer: 0.015 µM

Question: Which results are given for `NC(=O)c1cc(Cl)c2c(Cl)c(C#CC3CC3)n(C3CCCNC3)c2n1` (racemic)?
Answer: IC50 (KG-1): 0.167 µM; IC50 [1]: 0.0007 µM; IC50 [2]: 0.006 µM; IC50 [3]: 0.075 µM; Papp A→B at 5 µM [4]: 30 nm/s; IC50 [5]: 1 µM; hepatic extraction ratio at 5 µM [28]: 0.21; solubility thermodynamic [6]: 13 µM (≈ 4.9 µg/mL); AUC(0-inf) [29]: 2.5 µg·h/mL; half-life [30]: 2.6 h; half-life [31]: 3.3 h; bioavailability [32]: 97%; clearance [33]: 3.9 L/h/kg; Vd [34]: 11 L/kg; Cmax [35]: 0.958 µg/mL; CL (Mus musculus [36]): > 75%

Question: For `NC(=O)c1cc(Cl)c2c(Cl)c(C(F)(F)F)n(C3CCCNC3)c2n1` (stereo unspecified), which IC50 [1] is on record?
Answer: 0.067 µM

Question: And the IC50 [2]?
Answer: 0.025 µM

Question: Which IC50 (KG-1) does the source give for `NC(=O)c1cc(Cl)c2c(Cl)c(I)n(C3CCCNC3)c2n1` (racemic) here?
Answer: 0.085 µM

Question: What about the IC50 [1] of the same compound?
Answer: 0.001 µM

Question: And the IC50 [2]?
Answer: 0.006 µM

Question: What about the IC50 [27] of the same compound?
Answer: 0.002 µM

Question: And the IC50 [3]?
Answer: 0.047 µM

Question: What about the Papp A→B at 5 µM [4] of the same compound?
Answer: 26 nm/s

Question: And the hepatic extraction ratio at 5 µM [28]?
Answer: 0.35

Question: What about the solubility thermodynamic [6] of the same compound?
Answer: 42 µM (≈ 18.4 µg/mL)

Question: What about the AUC(0-inf) [29] of the same compound?
Answer: 15 µg·h/mL

Question: What about the half-life [30] of the same compound?
Answer: 1.5 h

Question: And the half-life [31]?
Answer: 2.3 h

Question: And the bioavailability [32]?
Answer: 54%

Question: What about the clearance [33] of the same compound?
Answer: 0.36 L/h/kg

Question: What about the Vd [34] of the same compound?
Answer: 0.55 L/kg

Question: What about the Cmax [35] of the same compound?
Answer: 3.5 µg/mL

Question: For `NC(=O)c1cc(Cl)c2c(Cl)c(C3CCCO3)n(C3CCCNC3)c2n1` (stereo unspecified), which IC50 [1] is on record?
Answer: 0.031 µM

Question: What about the IC50 [2] of the same compound?
Answer: 0.135 µM

Question: With `CC(C)=Cc1c(Cl)c2c(Cl)cc(C(N)=O)nc2n1C1CCCNC1` (stereo unspecified) as the compound, how does the IC50 [1] read?
Answer: 0.004 µM

Question: What about the IC50 [2] of the same compound?
Answer: 0.024 µM

Question: With `Cn1cc(-c2c(Cl)c3c(Cl)cc(C(N)=O)nc3n2C2CCCNC2)cn1` (stereo unspecified) as the compound, how does the IC50 [1] read?
Answer: 0.001 µM

Question: What about the IC50 [2] of the same compound?
Answer: 0.016 µM

Question: What does the source list for `NC(=O)c1cc(Cl)c2c(Cl)c(I)n(Cc3ccncc3)c2n1`?
Answer: IC50 [1]: 0.72 µM; IC50 [27]: 5.62 µM

Question: Which IC50 [1] does the source give for `NC(=O)c1cc(Cl)c2c(Cl)c(I)n(C3CCCC(O)C3)c2n1` (racemic) here?
Answer: 0.008 µM

Question: What about the IC50 [2] of the same compound?
Answer: 0.089 µM

Question: And the IC50 [27]?
Answer: 0.028 µM

Question: Which IC50 [1] does the source give for `NC(=O)c1cc(Cl)c2c(Cl)c(I)n(CC3CCCN3)c2n1` (racemic) here?
Answer: 0.012 µM

Question: What about the IC50 [2] of the same compound?
Answer: 0.383 µM

Question: What about the IC50 [27] of the same compound?
Answer: 0.045 µM

Question: Which results are given for `NC(=O)c1cc(Cl)c2c(Cl)c(I)n(C3CN4CCC3CC4)c2n1` (racemic)?
Answer: IC50 [1]: 0.006 µM; IC50 [2]: 0.099 µM; IC50 [27]: 0.027 µM

Question: Which IC50 [1] does the source give for `COCC1CC1c1c(Cl)c2c(Cl)cc(C(N)=O)nc2n1C1CCCNC1` (stereo unspecified) here?
Answer: 0.042 µM

Question: And the IC50 [2]?
Answer: 0.298 µM

Question: For `CCN(CC)CCn1c(I)c(Cl)c2c(Cl)cc(C(N)=O)nc21`, which IC50 [1] is on record?
Answer: 0.125 µM

Question: And the IC50 [2]?
Answer: 7.41 µM

Question: And the IC50 [27]?
Answer: 0.48 µM

Question: Which IC50 [1] does the source give for `COC/C=C/c1c(Cl)c2c(Cl)cc(C(N)=O)nc2n1C1CCCNC1` (stereo unspecified) here?
Answer: 0.008 µM

Question: And the IC50 [2]?
Answer: 0.057 µM
